This experiment has as its target T1, human CB1 receptor (Homo sapiens, UniProt P21554).
T1 construct: expressed in transfected cells; membrane-enriched fractions
Description: competitive radioligand binding assay, displacement of [3H]CP55,940, CB1. The note with it: for IC50: displacement of specific [3H]-CP55940 binding in HEK 293 cells stably transfected with human CB1 receptor. How it is done:
In addition, the affinity of test compounds of this invention toward CB1 and CB2 receptors was determined by competitive radioligand binding assays in vitro. This method differentiates the binding strength between compounds by their abilities in displacing a receptor-specific radioactive ligand. […] The readings of the radioactivity retained allow further analysis of receptor binding, and assist in predictions of the pharmacological activities of the test compounds.
In the assays, CB1 receptors are from human CB1 stably expressed cell lines, and CB2 receptors are from human CB2 stably expressed cell lines. For purification of membrane-enriched fractions, cells were scraped off from the culture dishes in ice-cold buffer A (50 mM Tris, 5 mM MgCl2, 2.5 mM EDTA, pH 7.4, 10% sucrose) with 1 mM PMSF. After sonication, the membrane-enriched fractions were centrifuged for 15 minutes at 2,000×g at 4° C. The supernatant was centrifuged again for 30 minutes at 43,000×g at 4° C. The final pellet was re-suspended in buffer A and stored at −80° C. The protein concentration of the purified membrane was determined by the Bradford method as described by the manual provided by Bio-Rad Laboratories, Inc., Hercules, Calif.
During the receptor binding experiments, 0.2˜8 μg of membrane fractions were incubated with 0.75 nM [^3H]CP55,940 and a test compound in the incubation buffer of 50 mM Tris-HCl, 5 mM MgCl2, 1 mM EDTA, 0.3% BSA, pH 7.4. The non-specific binding was determined by using 1 μM of CP55,940. The mixture was incubated for 1.5 hours at 30° C. in Multiscreen microplates (Millipore, Billerica, Mass.). At the completion of the incubation, the reaction was terminated by Manifold filtration and washed with ice-cold wash buffer (50 mM Tris, pH 7.4, 0.25% BSA) four times. The radioactivity bound to the filters was measured by Topcount (Perkin Elmer Inc.).
(Displacement assays read how much labelled ligand stays bound in the presence of the test substance.)

Setting [1] is: Table 1, percent inhibition at 10 μM.
Where [2] appears, read: Table 2, percent inhibition at 10 μM.

T1 sequence (P21554 whole entry): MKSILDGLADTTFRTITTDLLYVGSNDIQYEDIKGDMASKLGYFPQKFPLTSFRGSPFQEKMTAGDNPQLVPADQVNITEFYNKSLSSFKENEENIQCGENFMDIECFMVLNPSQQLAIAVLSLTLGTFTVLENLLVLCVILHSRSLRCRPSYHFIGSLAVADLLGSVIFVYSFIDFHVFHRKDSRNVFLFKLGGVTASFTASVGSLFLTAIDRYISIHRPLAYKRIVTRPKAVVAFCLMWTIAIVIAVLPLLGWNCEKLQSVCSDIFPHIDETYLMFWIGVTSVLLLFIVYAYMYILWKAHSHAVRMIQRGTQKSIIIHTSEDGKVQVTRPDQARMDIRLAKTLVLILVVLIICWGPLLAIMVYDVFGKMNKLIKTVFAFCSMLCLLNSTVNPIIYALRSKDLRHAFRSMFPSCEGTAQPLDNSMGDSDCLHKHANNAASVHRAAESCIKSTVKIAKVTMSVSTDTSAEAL

A word on the inhibition: it is the change of the read-out against control, counted positive when it falls. With `CC(C)(C)OC(=O)NNC(=O)Cn1nnc(-c2ccccc2)c1-c1ccccc1` [Compound 44], under setting [1], the inhibition at 10 µM turned out to be 14.1%. On to `CC(C)(C)C(=O)n1nc(-c2ccccc2)c(-c2ccccc2)n1` [Compound 66], for which the inhibition at 10 µM under setting [2] was found to be 32.1%.

Take `O=C(NCc1ccccc1)n1nc(-c2ccc(Cl)cc2Cl)c(-c2ccc(Cl)cc2Cl)n1` [Compound 73]: the inhibition at 10 µM under setting [2] stood at 23.8%.

Turning to `CCCCCCCOC(=O)Cn1nnc(-c2ccc(Cl)cc2Cl)c1-c1ccc(Cl)cc1Cl` [Compound 59], under setting [1], the inhibition at 10 µM turned out to be 30.1%.

On to `CCCCCCNC(=O)n1nc(-c2ccc(Cl)cc2)c(-c2ccc(Cl)cc2)n1` [Compound 81], for which the inhibition at 10 µM under setting [2] stood at 41.5%. With `CCCCOC(=O)Cn1nnc(-c2ccccc2)c1-c1ccsc1` [Compound 42], the inhibition at 10 µM under setting [1] is 35.6%. Consider `CCCCCCNC(=O)n1nc(-c2ccc(Cl)cc2)c(-c2ccc(Cl)cc2Cl)n1` [Compound 94], for which, under setting [2], the inhibition at 10 µM came out at 10.9%. The IC50 is the point on the concentration scale where inhibition reaches its midpoint. Low values mean greater potency in that assay, high ones weaker potency in that assay. As for `O=C(Cn1nc(-c2ccc(Cl)cc2)c(-c2ccc(Cl)cc2Cl)n1)NCc1ccc(F)cc1F` [Compound 157], the IC50 is 217 ± 86.6 nM. Further, the inhibition at 10 µM under setting [2] was determined as 95.2%.

As to `CCCCCNC(=O)n1nc(-c2ccc(Cl)cc2)c(-c2ccc(Cl)cc2)n1` [Compound 86], the inhibition at 10 µM under setting [2] is 8.4%. Turning to `O=C(NC1CCCCC1)n1nc(-c2ccc(Cl)cc2)c(-c2ccc(Cl)cc2Cl)n1` [Compound 93], the inhibition at 10 µM under setting [2] was 30.5%. As to `O=C(Cn1nnc(-c2ccc(Cl)c(Cl)c2)c1-c1ccc(Cl)c(Cl)c1)N1CCCCC1` [Compound 10], the inhibition at 10 µM under setting [1] came out at 20.3%. On the same count and under the same terms, next, `O=C(Cn1nnc(-c2ccccc2)c1-c1ccccc1)NN1CCCCC1` [Compound 8]: 12.3%.

For `CCCCOC(=O)Cn1nnc(-c2ccccc2)c1-c1ccc(C(F)(F)F)cc1` [Compound 40], the inhibition at 10 µM under setting [1] amounted to 16.3%. For `O=C(Cn1nc(-c2ccc(Cl)cc2Cl)c(-c2ccc(Cl)cc2Cl)n1)NN1CCCCC1` [Compound 121], the inhibition at 10 µM under setting [2] is 70.3%.

`CCCCCCNC(=O)NNC(=O)Cn1nnc(-c2ccc(Cl)cc2)c1-c1ccc(Cl)cc1` [Compound 45]: the inhibition at 10 µM under setting [1] came to 9.8%. For the molecule `O=C(Cn1nc(-c2ccc(Cl)cc2)c(-c2ccc(Cl)cc2Cl)n1)NCc1ccc(Cl)cc1` [Compound 150], the half-inhibitory concentration (IC50) came to 704 ± 283 nM. In addition, under setting [2], the inhibition at 10 µM was 91.4%. Regarding `O=C(Cn1nc(-c2ccc(Cl)cc2)c(-c2ccc(Cl)cc2Cl)n1)NC1CCCCC1` [Compound 138], the IC50 came to 1700 ± 425 nM. `COc1ccc(CNC(=O)Cn2nc(-c3ccc(Cl)cc3)c(-c3ccc(Cl)cc3Cl)n2)cc1OC` [Compound 164] gave an IC50 of 2830 ± 378 nM. In addition, the inhibition at 10 µM under setting [2] stood at 82.1%. In the same order, the values of `CCCCOC(=O)Cn1nc(-c2ccc(Cl)cc2)c(-c2ccc(Cl)cc2)n1` [Compound 112] are 2810 ± 301 nM and 82.1%. As for `Cc1cc(C)cc(NC(=O)n2nc(-c3ccc(Cl)cc3Cl)c(-c3ccc(Cl)cc3Cl)n2)c1` [Compound 76], under setting [2], the inhibition at 10 µM is 12.7%. Consider `C#CC1(NC(=O)Cn2nc(-c3ccc(Cl)cc3Cl)c(-c3ccc(Cl)cc3Cl)n2)CCCCC1` [Compound 126], for which the IC50 worked out at 86.8 ± 1 nM. Further, the inhibition at 10 µM under setting [2] is 102%. Turning to `CCCCOC(=O)CNC(=O)n1nc(-c2ccc(Cl)cc2Cl)c(-c2ccc(Cl)cc2Cl)n1` [Compound 92], the inhibition at 10 µM under setting [2] is 22.3%. As for `CCCCCOC(=O)Cn1nnc(-c2ccc(Cl)cc2)c1-c1ccc(Cl)cc1` [Compound 20], under setting [1], the inhibition at 10 µM was 51.2%. As for `CCCCCCCC(=O)n1nc(-c2ccc(Cl)cc2)c(-c2ccc(Cl)cc2)n1` [Compound 84], the inhibition at 10 µM under setting [2] is 21.2%.

For `COc1ccc(NC(=O)n2nc(-c3ccc(Cl)cc3Cl)c(-c3ccc(Cl)cc3Cl)n2)cc1` [Compound 78], the inhibition at 10 µM under setting [2] worked out at 6.4%.

For the molecule `CC1CCC(NC(=O)Cn2nc(-c3ccc(Cl)cc3)c(-c3ccc(Cl)cc3Cl)n2)CC1` (stereo not shown) [Compound 167], the inhibition at 10 µM under setting [2] is 92.1%. For `COC[C@H](NC(=O)Cn1nc(-c2ccc(Cl)cc2Cl)c(-c2ccc(Cl)cc2Cl)n1)[C@@H](O)c1ccccc1` [Compound 134], the half-inhibitory concentration (IC50) is 806 ± 346 nM. In addition, the inhibition at 10 µM under setting [2] was determined as 95.9%. Turning to `CCCCOC(=O)CCn1nnc(-c2ccccc2)c1-c1ccccc1` [Compound 24], the inhibition at 10 µM under setting [1] was 31.6%. Take `O=C(NC12CC3CC(CC(C3)C1)C2)n1nc(-c2ccccc2)c(-c2ccccc2)n1` [Compound 106]: the inhibition at 10 µM under setting [2] amounted to 4.8%. As for `O=C(Cn1nnc(-c2ccccc2)c1-c1ccccc1)N1CCCCC1` [Compound 3], under setting [1], the inhibition at 10 µM amounted to 26.6%. As for `O=C(Cn1nc(-c2ccc(Cl)cc2)c(-c2ccc(Cl)cc2Cl)n1)NN1CCCCC1` [Compound 142], the IC50 stood at 1850 ± 1380 nM. Also, the inhibition at 10 µM under setting [2] stood at 76.1%. As for `CCC(CC)OC(=O)Cn1nnc(-c2ccc(Cl)cc2)c1-c1ccc(Cl)cc1` [Compound 33], under setting [1], the inhibition at 10 µM was found to be 24.6%. As to `O=C(c1ccccc1)n1nc(-c2ccc(Cl)cc2)c(-c2ccc(Cl)cc2)n1` [Compound 70], the inhibition at 10 µM under setting [2] was found to be 16.2%. With `CCCCCCCNC(=O)NNC(=O)Cn1nnc(-c2ccc(Cl)cc2)c1-c1ccc(Cl)cc1` [Compound 50], the inhibition at 10 µM under setting [1] was 27.5%. Still for that read-out and setting: next, `CCCCCCCOC(=O)Cn1nnc(-c2ccc(Cl)cc2)c1-c1ccc(Cl)cc1` [Compound 25]: 53.6%; `O=C(Cn1nnc(-c2ccc(Cl)cc2Cl)c1-c1ccc(Cl)cc1Cl)N1CCOCC1` [Compound 64]: 26%. Still for that read-out and setting: the figure for `O=C(Cn1nnc(-c2cc(Cl)cc(Cl)c2)c1-c1cc(Cl)cc(Cl)c1)N1CCCCC1` [Compound 17] is 25.9%. For `CCCCCCNC(=O)n1nc(-c2ccc(Cl)cc2Cl)c(-c2ccc(Cl)cc2Cl)n1` [Compound 75], the inhibition at 10 µM under setting [2] amounted to 3.3%. For the molecule `O=C(NC1CCCCC1)n1nc(-c2ccc(Cl)cc2Cl)c(-c2ccc(Cl)cc2Cl)n1` [Compound 97], for the setting “Table 2, percent inhibition at 10 μM, 10 µM”, the “CB1 Inhibition (%) (10 μM)” value was found to be 29.20%. As for `C=CCNC(=O)Cn1nnc(-c2ccccc2)c1-c1ccccc1` [Compound 7], under setting [1], the inhibition at 10 µM stood at 15.4%. Consider `CCCCCCCNC(=O)n1nc(-c2ccc(Cl)cc2)c(-c2ccc(Cl)cc2)n1` [Compound 87], for which, under setting [2], the inhibition at 10 µM is 12.9%. The same measure, in the same setting: the figure for `CCOC(=O)Cn1nc(-c2ccccc2)c(-c2ccccc2)n1` [Compound 110] is 59.1%.

`O=C(Cn1nc(-c2ccc(Cl)cc2Cl)c(-c2ccc(Cl)cc2Cl)n1)N1CCOCC1` [Compound 131] yielded a half-maximal inhibitory concentration (IC50) of 71.9 ± 16.5 nM. In addition, under setting [2], the inhibition at 10 µM is 84.2%. The corresponding values for `C[C@H](NC(=O)Cn1nc(-c2ccc(Cl)cc2Cl)c(-c2ccc(Cl)cc2Cl)n1)C(O)(c1ccccc1)c1ccccc1` [Compound 133] are 760 ± 273 nM and 75.7%.

Turning to `CCCCN(CCCC)C(=O)Cn1nnc(-c2ccccc2)c1-c1ccccc1` [Compound 38], under setting [1], the inhibition at 10 µM is 23.8%.

Consider `CCCCCNC(=O)NNC(=O)Cn1nnc(-c2ccc(Cl)cc2)c1-c1ccc(Cl)cc1` [Compound 51], for which the inhibition at 10 µM under setting [1] was found to be 18.6%. Turning to `CCCCCCCNC(=O)n1nc(-c2ccc(Cl)cc2)c(-c2ccc(Cl)cc2Cl)n1` [Compound 95], the inhibition at 10 µM under setting [2] amounted to 14.9%.

For `CCCCCOC(=O)Cn1nc(-c2ccc(Cl)cc2Cl)c(-c2ccc(Cl)cc2Cl)n1` [Compound 116], the concentration for half-maximal inhibition (IC50) amounted to 2800 ± 544 nM. The inhibition at 10 µM under setting [2] worked out at 76.5%.

(Values after patent publication US8293773B2, “1, 2, 3-triazole derivatives as new cannabinoid-1 receptor antagonists” (National Tsing Hua University, priority 2008, dated 2012).)
